The conditions of series [1]: derivative of French Pat. No. 2,340,735; cited from earlier work.
The conditions of series [2]: derivative of French Pat. No. 2,340,735; cited from earlier work. The source holds these as a separate data set.
Another series is described as follows: Acute toxicity. Format: in vivo. The following applies: oral, mice.
Series [3] concerns plasmatic corticosterone level. Briefly: Action against stress caused by noise by plasmatic corticosterone level. In kind it is in vivo. To be noted: Rattus norvegicus; oral; groups of 5 rats fasted 24 hours; noise stress one hour later; read-out: DE50 (oral dose which reduced by 50% the level of corticosterone). On the procedure: The test was effected on groups of 5 rats fasted for 24 hours receiving orally the test compound between 8 and 9 in the morning. One hour later, stress was applied to the animals by placing them in a cage with a noisily operated radio adjacent thereto. 30 minutes later, they received an intraperitonal prick and 10 minutes later, the animals were anesthesized with halothane. 3 ml blood samples were taken after decapitation and the seric levels of corticosterone were determined by a radio-immunological method. Counts were taken of the importance in the male rat of seric concentrations of corticosterone to determine directly without previous extraction of the hormone with 0.1 ml of the sample diluted to 1 to 100. To the test sample were added in hemolysis tubes (12×65 mm) 0.1 ml of an aqueous solution of ^3 H-- corticosterone (5000 spm) and 0.5 ml of buffered phosphate solution (0.02 M; pH of 6.9) containing 0.02% of gelatine and 0.02% of sodium nitride containing a suspension of anticorticosterone antiserum (dilution 1/300,000), sheep antiserum anti γ-globuline of rabbit (dilution of 1/50) and normal serum of rabbit treated with Dextran carbon (dilution 1/500).
The volume was adjusted to 1 ml and the mixture was incubated overnight at 4° C. The mixture was centrifuged at 3000 t/mn for 20 minutes and the surnageant was discarded. The radioactivity contained in the precipitate was measured by a counter after addition of 2 ml of scintillation liquid containing 5% of Soluene 350. The concentration of corticosterone was determined with a standard curve (0-4000 pg) established under the treatment conditions of the samples. The individual seric level of corticosterone expressed in μg/100 ml was determined as the average of 3 tests and the results were compared by the Student test to those obtained in control animals not subjected to stress. The results expressed as DE50 on the oral dose which reduced by 50% the level of corticosterone in the treated animals is reported in Table III.

A short description of series [4]: Anxiolytic activity (electric shock test, Apelab apparatus, Boissier et al). Format: in vivo, mice. To be noted: oral; for ED (maximum): Mus musculus, 0.5 h, 30 minutes before the test, groups of 10 mice, shocks over one minute, read-out: oral dose at which the number of delivered shocks increased to the maximum; for anxiolytic activity (in words): mice. On the procedure: The Apelab apparatus and protocol used by Boissier et al [European J. Pharmacol., Vol. 4 (1968), p. 145] were used to determine the anxiolytic activity and 4 plates were connected to a stimulator (U. Sachs, Roucaire) which delivered electric shocks of 120 volts for 0.5 seconds. The test was effected on groups of 10 mice who had orally received the test compound 30 minutes before the test. Each animal was individually placed on the apparatus and after 15 seconds of free exploration, it was subjected to an electric shock each time as it passed from plate to another, a minimum of 3 seconds being observed between 2 shocks. The number of delivered shocks was determined over one minute and the obtained results were compared to those observed on control animals by the Dunnett test.

In series [5] the target is receptors for benzodiazepines. Put plainly: Affinity for receptors for benzodiazepines (inhibition of specific bonding of ^3 H diazepam). In kind it is binding. To be noted: ^3 H diazepam 10^-9 M, rat cortex, pH of 7.4. The protocol:
The test was inspired by Mohler et al. [Science, No. 198 (1977), p. 849-851] and one part of the cortex removed from the brains of males rats weighing an average of […] per 20 parts by volume of 0.32 M of sucrose solution was homogenized. After centrifugation at 1000 g of the homogenized mixture at 0° C. for 10 minutes, the surnagent was centrifuged at 30,000 g at 4° C. for 20 minutes and the culot was suspended in 20 volumes of buffered 50 mM. Tris HCl with a pH of 7.4. The suspension was centrifuged at 30,000 g for 20 minutes at 4° C. and the new culot was suspended in 50 ml of buffered Krebs Tris HCl with a pH of 7.4. Following incubation at 0° C. for 30 minutes, 2 ml of the suspension in the presence of ^3 H diazepam at a concentration of 10^-9 M alone and with increasing concentrations of the test product to determine non-specific fixation with non-radioactive diazepam at a concentration of 10^-6 M.
The incubated suspension were filtered through a Whatman GF/C filter and the filters were washed twice at 0° C. with 5 ml of buffered krebs. Tris HCl with a pH of 7.4. The radioactivity of the filter was measured by liquid scintillation and the activity of the product was expressed in I.C.50 or the concentration which inhibits by 50% the specific bonding of ^3 H diazepam determined graphically.

SMILES strings stand for the structures. Counter-ions that a name gives are not always drawn. Like-named read-outs stand apart in the source and are kept apart here.

Usually IC50 stands for the concentration that inhibits the measured activity by half. A high value points to weaker potency.

Regarding `O=C(NC1=NCCS1)c1cnc2c(C(F)(F)F)cccc2c1O`, the “analgesic activity (in words)” value in series [1] was “has analgesic activity”. Moreover, the “anxiolytic activity (in words)” value in series [2] is reported as “devoid of anxiolytic activity”.
For the compound `Cl.O=C(NC1=NCCS1)c1cnc2ccccc2c1O` [Example 1, N-(4,5-dihydro-thiazol-2-yl)-4-hydroxy-3-quinoline-carboxamide hydrochloride], the “DL0 (maximum dose which did not cause any mortality after 8 days)” value in the series “Acute toxicity” is more than 400 mg/kg. Further, the ED50 in series [3] is 10 mg/kg. Also, in series [4], the ED (maximum) was 10 mg/kg and the “anxiolytic activity (in words)” value is reported as “good anxoilytic activity”. This compound registered an IC50 in series [5] of 0.5 nM.
In the case of `CCc1ccc2ncc(C(=O)NC3=NCCS3)c(O)c2c1.Cl` [Example 2, N-(4,5-dihydro-thiazol-2-yl)-6-ethyl-4-hydroxy-3-quinoline-carboxamide hydrochloride], the “DL0 (maximum dose which did not cause any mortality after 8 days)” value in “Acute toxicity” is given as more than 400 mg/kg. Further, the ED50 in series [3] was 15 mg/kg. In addition, in series [4], the ED (maximum) turned out to be 20 mg/kg and the “anxiolytic activity (in words)” value is on record as “good anxoilytic activity”. This compound also displayed an IC50 in series [5] of 0.3 nM.
In series [5], `Cc1ccc2ncc(C(=O)NC3=NCCS3)c(O)c2c1` [Example 3, N-(4,5-dihydro-thiazol-2-yl)-6-methyl-4-hydroxy-3-quinoline-carboxamide hydrochloride] came in with an IC50 of 1.5 nM.
As for `CC(C)c1ccc2ncc(C(=O)NC3=NCCS3)c(O)c2c1` [Example 4, N-(4,5-dihydro-thiazol-2-yl)-6-isopropyl-4-hydroxy-3-quinoline-carboxamidehydrochloride], in “Acute toxicity”, the “DL0 (maximum dose which did not cause any mortality after 8 days)” value is more than 1000 mg/kg. The ED50 in series [3] was found to be 50 mg/kg. Also, in series [4], the ED (maximum) was found to be 20 mg/kg and the “anxiolytic activity (in words)” value is “good anxoilytic activity”. Besides, in series [5], half-maximal inhibition (IC50) required 2.2 nM.
As to `O=C(NC1=NCCS1)c1cnc2cc(Cl)ccc2c1O` [Example 5, N-(4,5-dihydro-thiazol-2-yl)-7-chloro-4-hydroxy-3-quinoline-carboxamide hydrochloride], the “DL0 (maximum dose which did not cause any mortality after 8 days)” value in “Acute toxicity” is given as more than 1000 mg/kg. This compound also showed a half-maximal inhibitory concentration (IC50) in series [5] of 0.9 nM.
Consider `O=C(NC1=NCCS1)c1cnc2ccc(Cl)cc2c1O` [Example 6, N-(4,5-dihydro-thiazol-2-yl)-6-chloro-4-hydroxy-3-quinoline-carboxamide hydrochloride], for which the “DL0 (maximum dose which did not cause any mortality after 8 days)” value in the series “Acute toxicity” is recorded as more than 400 mg/kg. In series [3], the ED50 came to 50 mg/kg. Also, in series [4], the ED (maximum) stood at 50 mg/kg and the “anxiolytic activity (in words)” value is “good anxoilytic activity”. Also, the 50% inhibitory concentration (IC50) in series [5] worked out at 1 nM.
As to `O=C(NC1=NCCS1)c1cnc2ccc(F)cc2c1O` [Example 7, N-(4,5-dihydro-thiazol-2-yl)-6-fluoro-4-hydroxy-3-quinoline-carboxamide hydrochloride], in series [5], inhibition was half-maximal at 1.3 nM (IC50).
Regarding `COc1ccc2c(O)c(C(=O)NC3=NCCS3)cnc2c1` [Example 8, N-(4,5-dihydro-thiazol-2-yl)-7-methoxy-4-hydroxy-3-quinoline-carboxamide hydrochloride], the “DL0 (maximum dose which did not cause any mortality after 8 days)” value in the series “Acute toxicity” is recorded as more than 400 mg/kg. In series [4], the ED (maximum) amounted to 20 mg/kg and the “anxiolytic activity (in words)” value was “good anxoilytic activity”. The same compound came in with a concentration for half-maximal inhibition (IC50) in series [5] of 1.2 nM.
With `Cc1nc2ccccc2c(O)c1C(=O)NC1=NCCS1` [Example 9, N-(4,5-dihydro-thiazol-2-yl)-2-methyl-4-hydroxy-3-quinoline-carboxamide hydrochloride], the “DL0 (maximum dose which did not cause any mortality after 8 days)” value in “Acute toxicity” is given as more than 1000 mg/kg. Besides, the ED50 in series [3] worked out at 10 mg/kg. In series [4], the ED (maximum) was determined as 10 mg/kg and the “anxiolytic activity (in words)” value is given as “good anxoilytic activity”. Further, it took 2.6 nM to reach half-maximal inhibition in series [5] (IC50).

The record behind these values is patent US4450166A, “N-(4,5-Dihydro-thiazol-2-yl)-3-quinoline-carboxamides having anxiolytic activity” (Roussel Uclaf, priority 1981, dated 1984).
